The term melting point denotes the temperature of the solid-liquid transition.

With `COC(=O)c1ccc(-c2nnc(-c3ccc(C(C)C)cc3)s2)cc1`, the melting point is 147 to 151 °C. As to `Cc1ccc(S(=O)(=O)NC(=O)c2nc(Cl)c(Cl)[nH]2)cc1`, the melting point is 238 °C. Then `Cc1cc(C2=C(C=CC3CC(O)CC(=O)O3)C(C)(C)CC(O)C2)ccc1F` (centres undefined), with 77 to 79 °C; and `Cc1nc2c(N)nc3ccccc3c2n1CCS(C)(=O)=O`, with 242 to 245 °C. Compound `CC1(C)CC(=O)Nc2cc3nc(-c4ccccc4)[nH]c3cc21` showed a melting point of 296 to 298 °C. Then `Brc1ccc2ccsc2c1`, with 53 to 55 °C; and `CC(C)(C)OC(=O)c1ncn2c1[C@@H]1CCCN1C(=O)c1ccccc1-2`, with 237 to 238 °C; and `CCOC(=O)N(CCCOCCOCCCN(C(=O)OCC)C1CC(C)(C)NC(C)(C)C1)C1CC(C)(C)NC(C)(C)C1`, with 92 to 93 °C. Under `CCOC(=O)/C=C/c1ccc2c(=O)n(CC(C)C)c(CNC(=O)OC(C)(C)C)c(-c3ccccc3)c2c1` stands 147 to 148 °C; under `CCCSCc1cccc(-c2nc(=O)c3ccccc3s2)n1`, 112 to 113 °C; under `CN(C(=O)C(Cl)(Cl)Cl)c1nc(Cl)c([N+](=O)[O-])s1`, 146 to 149 °C. Under `Cc1cc2cc(NC(=O)NC34CC5CC(CC(C5)C3)C4)ccc2[nH]1` stands 146 to 152 °C; under `O=C(C=Cc1ccc(OC(F)(F)F)cc1)N1CCc2c([nH]c3ccccc23)C1c1ccc2c(c1)OCO2` (centres undefined), 203 to 205 °C. `COc1cc(C(=O)O)ccc1C(F)(F)F` had a melting point of 203 to 204 °C. Then `Cc1ccc(C(NC(=O)[C@H](CCC(=O)O)NC(=O)c2cc3ccccc3[nH]2)c2ccc(C)cc2)cc1`, with above 260 °C; and `O=C1CC(/C=C/c2ccncc2)=Nc2ccccc2N1Cc1ccccc1`, with 208 to 210 °C; and `COc1cc2nc(N3CCN(C(=O)C4CC=CC4)CC3)nc(N)c2cc1OC`, with 216 to 218 °C. Under `C[Si](C)(C)CCc1nnc(N)nc1N` stands 203 to 204 °C.

In turn, `C#CC[C@H](c1nc2cc(Cl)ccc2c(=O)n1Nc1ccccc1)N(CCCN)C(=O)c1cc(F)c(F)c(F)c1F` showed a melting point of 155 to 158 °C. Under `CC(CN1C(=O)C2(COc3cc4c(cc32)CCO4)c2ccccc21)OCc1ccccn1` (centres undefined) stands 46 to 54 °C; under `O=C(NO)Oc1ccccc1`, 99.5 to 101 °C. Then `Cc1nnc2nc(-c3cccc(C(F)(F)F)c3)cnn12`, with 230 to 233 °C; and `Cc1cc(C(=O)N(C)C)ncc1C(c1c(F)ccc(F)c1F)S(=O)(=O)CCC(F)(F)F` (centres undefined), with 203 to 204 °C.

For `Cc1cccc2c1nc(-c1c(F)cccc1F)n2Cc1c(F)c(F)c(F)c(F)c1F`, the melting point fell in the range of 155 to 156 °C. Then `N#Cc1ccc(NC(=O)CCc2ccc(O)cc2)cc1`, with 169 to 172 °C; and `c1ccc(-c2csc(-c3cnn4cccnc34)c2)cc1`, with 72 to 72.5 °C. Then `O=C(COc1ccc(-c2c(Cl)c(CN3C(=O)CCC3=O)nc3sc4c(c23)CCS(=O)C4)cc1)NCc1ccccc1` (centres undefined), with 220 to 221 °C.

Regarding `CCOC(=O)c1cn(C2CC2)c2c(C#N)c(F)c(F)cc2c1=O`, the melting point was in the range of 209 to 211 °C. Then `Cc1c(C)c2c(c(C)c1N)CC(C)(CSCCC(=O)O)O2` (centres undefined), with 139 to 140 °C; and `Cc1cccc2c(=O)[nH]c(C3CCC(N(C)C)CC3)nc12` (centres undefined), with 181 to 183 °C; and `N#Cc1ccc(OCCCCOc2ccc(-c3cc4ccc(C#N)cc4o3)cc2)cc1`, with 187 to 189 °C. Under `CCC(CC)N1CCN(C(=O)Oc2ccc(OC)cc2)CC1` stands 52 to 54 °C. Then `O[C@@H](COc1cccc(-c2noc3ccsc23)c1)CN1CCN(c2cccc(Cl)c2)CC1`, with 118 to 120 °C. On to `O=C1c2cc(Br)cc(Br)c2CCC1n1ccnc1` (centres undefined), for which the melting point lay in the range of 180 to 184 °C. Under `N#Cc1c(C(F)(F)F)ccc(F)c1N` stands 100 to 102 °C; under `CN(Cc1sc2c(=O)c(C(=O)NCc3ccc(Cl)cc3)cn(C)c2c1CO)CC(O)c1ccc2ccccc2n1` (centres undefined), 196 to 198 °C; under `COc1ccc(C(=NOC(C)=O)c2ccc(Cl)cc2)c(O)c1`, 167 °C.

`C=C(C)C(=O)[C@@H]1CCCC[C@H]1C(=O)OC(c1ccccc1)c1ccccc1` (relative stereo) showed a melting point of 90 to 95 °C. Take `CCC(OC(=O)CCNC(=O)OC(C)(C)C)c1cc2n(c(=O)c1C)Cc1cc3ccccc3nc1-2` (centres undefined): the melting point lay within 155 to 158 °C. Regarding `COc1cccc(Cn2c(=O)c3c(N4CCN(C)CC4)cc(Cl)cc3n(Cc3ccccc3)c2=O)c1`, the melting point was 98 to 110 °C.

In turn, `COC(=O)c1cc(CCNC(=O)C(F)(F)F)ccc1OC` returned a melting point of 61 to 63 °C. Under `OCc1ccc(-c2ccc3nc(-c4ccc(Cl)cc4)cn3c2)o1` stands 197 to 199 °C; under `CCOC(=O)c1cccc(-c2ccc(-c3ccc(C(F)(F)F)cc3)o2)c1`, 93 to 94 °C; under `c1ccc(CSc2cnccn2)cc1`, 65 to 67 °C. Then `Fc1cccc([C@@H]2COCC(=S)N2)c1`, with 124 to 125 °C; and `CC(C)(C)OC(=O)NCc1cccc2c1C(=O)N(C1CCC(=O)NC1=O)C2=O` (centres undefined), with 180 to 182 °C; and `CCCc1nn(C)c2c(=O)[nH]c(-c3ccccc3OCC)nc12`, with 143 to 146 °C. Then `CCOC(=O)CNc1c(N)c(=O)c1=O`, with 231 to 233 °C; and `CC(O)C1C(=O)N2C(C(=O)OCc3ccc([N+](=O)[O-])cc3)C(=O)CC12` (mixture of isomers), with 92 to 98 °C. Consider `C=CCOc1ccc(-c2ccc(O)cc2)cc1`, for which the melting point fell in the range of 168 to 170 °C. Regarding `O=C1c2cccc3cccc(c23)C(=O)N1C1CCC(O)CC1` (centres undefined), the melting point is 240 to 242 °C. Then `Nc1ccc2c(c1)C(=O)CCO2`, with 136 to 137 °C; and `O=c1c2c([nH]n1-c1ccc(Cl)cc1)-c1ccccc1SC2`, with 235 to 237 °C. Then `CN1CCc2cc(Cl)c(O)cc2C1C1(c2ccc(Cl)cc2)CCC1` (centres undefined), with 168 to 171 °C; and `CCOc1cc(C(=O)c2ccccn2)ccc1OCCO`, with 140 to 141 °C. Then `CCN(CC)c1ccc(C(=NCCO[N+](=O)[O-])NC#N)cn1`, with 119 °C; and `Cn1cccc1C(=O)c1sc(Nc2ccc3[nH]cnc3c2)nc1N`, with 284 to 285 °C; and `O=C1CCCC(=O)N1Nc1ccc([N+](=O)[O-])cc1`, with 197 to 198 °C. `O=C1c2ccccc2COc2ccc(CCOC(c3ccccc3)(c3ccccc3)c3ccccc3)cc21` came in with a melting point of 132 to 134 °C.

In the case of `COC(=O)c1cc2c([nH]c3ccccc32)s1`, the melting point fell in the range of 200 to 201 °C. `COc1cc2nc(N)nc(-c3ccc(O)c(Br)c3)c2cc1OC` showed a melting point of 233 to 234 °C. Under `CCOc1cc2c(Nc3cc(OC)c(Cl)cc3Cl)c(C#N)cnc2cc1F` stands 184 to 186 °C; under `COC(=O)N(C)NC(=O)Oc1ccccc1`, 86 °C. Then `CCCC1=C([N+](=O)[O-])C(c2cccc3ccccc23)c2c[nH]nc2N1` (centres undefined), with 226 °C.

Consider `CC1(C)COC(c2ccccc2-c2ccc(CCl)cc2)=N1`, for which the melting point is 72 to 75 °C.

`COC(=O)C=Cc1ccc(OCCCCl)cc1` showed a melting point of 58 to 59 °C. Under `O=C(O[C@@H]1CC[C@H]1Br)c1ccccc1` (relative stereo) stands 38 to 40 °C. Then `COc1ccc2[nH]c(SCc3nccc(N(C)C)n3)nc2c1`, with 182 to 183 °C; and `O=C(Nc1c(F)cccc1F)c1ccc(-n2nc(C(F)(F)F)cc2C2CC2)cc1`, with 145 to 147 °C.

Compound `CCOC(=O)c1ccc(Oc2ccccc2C(=O)O)cc1` returned a melting point of 152 to 153 °C.

`CCOC(=O)CNc1ccc(OCC(=O)OCC)c(NC(=O)c2ccc(OCCCCc3ccccc3)cc2)c1` gave a melting point of 61 to 63 °C. Under `Cc1c(C#N)sc2nc(-c3ccccc3)nc(N3CCNCC3)c12` stands 251 to 253 °C; under `N#Cc1cc(-c2ccoc2)c2ccc(OCc3cccc(-c4ccccc4)n3)cc2c1`, 131 to 133 °C; under `Cc1ccc(-c2ccc(C#N)cc2)cc1`, 107 to 109 °C. Under `CC(C)(O)c1nnn(Cc2cccc(C(F)(F)F)c2)c1I` stands 77 to 80 °C; under `CC1(C)C(=O)Nc2cc3[nH]c(-c4ccc(O)cc4)nc3cc21`, 240 °C. Under `COCC1CCCN1S(=O)(=O)c1cc2c(cc1Cl)N1CCCN=C1C2=O` (centres undefined) stands 127 to 130 °C; under `CC1=C(CC(=O)O)c2cc(F)ccc2C1=Cc1ccc(S(C)(=O)=O)cc1`, 204 to 206 °C. In turn, `O=S(=O)(Nc1cccc(Cl)c1F)c1cc(S(=O)(=O)Nc2cccc(Cl)c2F)c2cc(O)ccc2c1` yielded a melting point of 126 to 128 °C. Under `CCCCOc1ccc2c(=O)c(-c3nnnn3C)cn(C)c2c1` stands 187 to 190 °C. Under `CN(C)c1ccc(CN2C(=O)C3(COc4cc5c(cc43)OCCO5)c3ccccc32)cn1` (centres undefined) stands 93 to 95 °C. Turning to `CC(C)CN(C=Nc1nnnc2c1ncn2C1CC(O)C(CO)O1)CC(C)C` (centres undefined), the melting point fell in the range of 138 to 140 °C. Under `COc1ccc(C(=O)NCCCCCNC(=O)c2ccc(OC)cc2)cc1` stands 160 to 161 °C; under `Clc1cc(N2CCCC2)nc(N2CCNCC2)n1`, 77 to 92 °C; under `CC12CCC(O)CC1=CCC1C2CCC2(C)C(n3ccnc3)=CCC12` (centres undefined), 220 to 223 °C. Under `COc1ccc(Cn2ncc3nc(O)nc(O)c32)cc1` stands 288 to 292 °C; under `Cc1noc(NS(=O)(=O)c2ccccc2[N+](=O)[O-])c1C`, 91 to 94 °C; under `O=C(OCc1ccccc1)c1ccc2cc(-c3ccc(CC(O)CO)c(C45CC6CC(CC(C6)C4)C5)c3)ccc2c1` (centres undefined), 200 °C. Under `CC(C)(C)C(NC(=O)Cc1ccc(Cl)cc1)NC(=NC#N)Nc1cccc2ncccc12` (centres undefined) stands 195 to 196 °C.

The record behind these values is a melting point compilation (Tetko et al.; mined from patent text by program, amines drawn as free bases though some values may be those of a salt).
